# Reference: US20070060558A1 (PALUMED S.A., priority 2004, published 2007)
# Columns and labels:
# [1] = system: Staphylococcus aureus MSSA CIP 4.83; experiment: Antibacterial activity (MIC/MBC); format: cell-based; conditions: Staphylococcus aureus; S. aureus MSSA CIP 4.83; read-out: MIC
# [2] = system: S. aureus NorA 1199B; experiment: Antibacterial activity (MIC); format: cell-based, Staphylococcus aureus
# [3] = system: S. pneumoniae PRSP; experiment: Antibacterial activity (MIC), Table VII; format: cell-based; conditions: Streptococcus pneumoniae; S. pneumoniae PRSP (Table VII); read-out: MIC
# [4] = system: E. faecalis VRE CIP 104676; experiment: Antibacterial activity (MIC/MBC); format: cell-based, Enterococcus faecalis; conditions: Enterococcus faecalis; E. faecalis VRE CIP 104676; read-out: MIC
# [5] = system: H. influenzae CIP 102514; experiment: Antibacterial activity (MIC/MBC); format: cell-based, Haemophilus influenzae; conditions: Haemophilus influenzae, CIP102514; H. influenzae CIP 102514; read-out: MIC
# [6] = system: E. coli CIP 54127; experiment: Antibacterial activity (MIC); format: cell-based; conditions: Escherichia coli, CIP54127; E. coli CIP 54127; read-out: MIC
# [7] = system: P. aeruginosa CIP 103467; experiment: Antibacterial activity (MIC); format: cell-based; conditions: Pseudomonas aeruginosa, CIP103467; P. aeruginosa CIP 103467; read-out: MIC
# [8] = system: B. subtilis CIP 5262; experiment: Antibacterial activity (MIC); format: cell-based; conditions: Bacillus subtilis, CIP5262; B. subtilis CIP 5262; read-out: MIC
# [9] = system: B. thuringiensis CIP 104676; experiment: Antibacterial activity (MIC); format: cell-based; conditions: Bacillus thuringiensis, CIP104676; B. thuringiensis CIP 104676; read-out: MIC
# [10] = system: B. fragilis API 7716; experiment: Antibacterial activity (MIC); format: cell-based; conditions: Bacteroides fragilis, API7716
# [11] = Staphylococcus aureus, NORA1199B
MIC [10] [µg/mL],SMILES,MIC [1] [µg/mL],MIC ([2]; S. aureus NorA 1199B (quinolone-resistant by efflux)) [µg/mL],"MIC [2, 11] [µg/mL]",MIC [3] [µg/mL],MIC [4] [µg/mL],MIC [5] [µg/mL],MIC [6] [µg/mL],MIC [7] [µg/mL],MIC [8] [µg/mL],MIC [9] [µg/mL]
,"O=C(O)c1cn(C2CC2)c2cc(N3CCNCC3)c(F)cc2c1=O [Ciprofloxacin, reference compound]",0.312,>50,> 50,1.25,1.25,0.1,0.01,0.156,0.04,0.156
0.2,"Cc1ncc([N+](=O)[O-])n1CCO [Metronidazole, reference compound]",,,,,,,,,,
,"Cl.O=C(O)c1cn(C2CC2)c2cc(N3CCN(CCNc4ccnc5cc(Cl)ccc45)CC3)c(F)cc2c1=O [PA 1127, 7-{4-[2-(7-Chloroquinolin-4-ylamino)-ethyl]-piperazin-1-yl}-1-cyclopropyl-6-fluoro-4-oxo-1,4-dihydroquinoline-3-carboxylic acid hydrochloride]",1.25,,3,2.5,1.25,0.156,0.156,5,0.312,0.625
0.78,"Cc1ncc([N+](=O)[O-])n1CCNc1ccnc2cc(Cl)ccc12 [PA 1129, (7-Chloroquinolin-4-yl)-[2-(2-methyl-5-nitroimidazol-1-yl)-ethyl]-amine]",,,,,,,,,,
